Assay results published in patent publication US12304912B2, “Fused bicyclic RAF inhibitors and methods for use thereof” (Jazz Pharmaceuticals Ireland Limited, priority 2020, dated 2025).

What was measured:
[1] = system: BRAF monomers in A375 cells; assay: A375 AlphaLISA SureFire pERK1/2 cellular assay (monomer); type: cell-based; details: Homo sapiens, A-375; A375 cells, 1 hr; read-out: pERK A375 (1 hr) pIC50 (converted)
Method: (§1) The human HCT-116 colorectal carcinoma cell line (ATCC CCL-247) endogenously expresses the KRAS^G13D mutation, which leads to constitutive activation of the MAP kinase pathway and phosphorylation of ERK. […] Assay read outs took place 2 or 24 hours after dosing with compounds. On the first day, HCT-116 cells were harvested, resuspended in growth medium (McCoys5A with Glutamax (Life Technologies 36600021) and 10% heat-inactivated fetal bovine serum (Sigma F9665)), and counted. Cells were plated in 100 μl per well in each well of a 96-well culture dish (Sigma CLS3598) to a final density of 30,000 (2 hr read) or 15,000 (24 hr read) cells per well and incubated over night at 37° C. and 5% CO2. On day 2, the growth medium was exchanged for dosing medium (McCoys5A with Glutamax (Life Technologies 36600021) and 1% heat-inactivated fetal bovine serum (Sigma F9665)) and the cells were dosed with compounds to produce a 10-point dose response, where the top concentration was 1 μM and subsequent concentrations were at 1/3 log dilution intervals. A matched DMSO control was included. The cells were subsequently incubated for either 2 or 24 hours at 37° C. and 5% CO2. After incubation, media was removed and the cells were incubated with lysis buffer containing phosphatase inhibitors for 15 minutes at room temperature. Cell lysates were transferred to a 12 area 96 well white Optiplate™ (Perkin Elmer 6005569) and incubated with anti-mouse IgG acceptor beads, a biotinylated anti-ERK1/2 rabbit antibody recognizing both phosphorylated and non-phosphorylated ERK1/2, a mouse antibody targeted to the Thr202/Tyr204 epitope and recognizing phosphorylated ERK proteins only, and streptavidin-coated donor beads. The biotinylated antibody binds to the streptavidin-coated donor beads and the phopsho-ERK1/2 antibody binds to the acceptor beads. Plates were read on an EnVision reader (Perkin Elmer) and excitation of the beads at 680 nm with a laser induced the release of singlet oxygen molecules from the donor beads that trigger energy transfer to the acceptor beads in close proximity, producing a signal that can be measured at […]. Both antibodies bound to phosphorylated ERK proteins, bringing the donor and acceptor beads into close proximity. All data were analyzed using the Dotmatics or GraphPad Prism software packages. Inhibition of ERK phosphorylation was assessed by determination of the absolute IC50 value, which is defined as the concentration of compound required to decrease the level of phosphorylated ERK proteins by 50% when compared to DMSO control.
A375 AlphaLISA SureFire pERK1/2 Cellular Assay (Monomer)
The human A375 melanoma cell line (ATCC CRL-1619) endogenously expresses the BRAF^V600E mutation, which leads to constitutive activation of the MAP kinase pathway and phosphorylation of ERK. In BRAF^V600E mutant tumours, BRAF signals as a monomer to activate ERK. To determine whether compounds can inhibit BRAF monomers in A375 cells, they were tested using AlphaLISA® SureFire® technology (Perkin Elmer p-ERK1/2 p-T202/Y204 assay kit ALSU-PERK-A10K). The main procedure is essentially the same as described above for HCT-116 cells, with the following adjustments: The A375 cells were cultivated and dosed in Dulbecco's modified Eagle's medium containing 4.5 g/L D-glucose (Sigma D6546), 10% heat-inactivated fetal bovine serum (Sigma F9665), and 1% Sodium-Pyruvate (Sigma S8636), and seeded with a seeding density of 30,000 cells per well. No media exchange was performed before dosing with compounds to produce a 10-point dose response, where the top concentration was 10 μM and subsequent concentrations were at 1/2 log dilution intervals. Subsequently, the cells were incubated for 1 hour at 37° C. and 5% CO2 before lysis.

[2] = system: RAF dimers in HCT-116 cells; assay: HCT-116 AlphaLISA SureFire pERK1/2 cellular assay (dimer); type: cell-based; details: Homo sapiens, HCT-116; HCT116 cells pre-dosed with 1 μM Encorafenib, 1 hr; read-out: pERK HCT116 dimer (1 hr) pIC50 (converted)
Method: as §1
HCT-116 AlphaLISA SureFire pERK1/2 Cellular Assay (Dimer)
The human HCT-116 colorectal carcinoma cell line (ATCC CCL-247) endogenously expresses the KRAS^G13D mutation, which leads to constitutive activation of the MAP kinase pathway and phosphorylation of ERK. First generation RAF inhibitors can promote RAF dimer formation in KRAS mutant tumours leading to a paradoxical activation of the pathway. To determine whether compounds can circumvent this problem and inhibit RAF dimers in HCT-116 cells, they were tested using AlphaLISA® SureFire® technology (Perkin Elmer p-ERK1/2 p-T202/Y204 assay kit ALSU-PERK-A10K). The main procedure is essentially the same as described above, with the following adjustments: Cells were seeded with the seeding density of 30,000 cells per well. On the second day (the day of dosing) no medium change was performed and the cells were dosed with 1 μM of Encorafenib for 1 hour (at 37° C. and 5% CO2) to induce RAF dimers and promote paradoxical dimer-dependent pERK signalling. After incubation, the cells were washed, 100 μl fresh growth medium was added, and cells were dosed with compounds of interest to produce a 10-point dose response, where the top concentration was 10 μM and subsequent concentrations are at 1/2 log dilution intervals. Cells were incubated for another hour at 37° C. and 5% CO2 before lysis and processing with the pERK AlphaLISA® SureFire® kit as described above. […]

[3] = Microsomal stability assay, human liver microsomes (HLM); type: in vitro ADME; details: 0.5 mg/mL protein, 1 μM substrate
Outline: (§2)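 Substrate depletion: 1 μM compound incubated at 37° C. with cryopreserved mouse or human liver microsomes at 0.5 mg·mL^−1 protein. Timed aliquots quenched in ice-cold organic solvent and measured by LC-MS/MS; t1/2 and CLint derived from the slope of ln % remaining versus time.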

[4] = Microsomal stability assay, mouse liver microsomes (MLM); type: in vitro ADME; details: 0.5 mg/mL protein, 1 μM substrate
Outline: as §2

[5] = Plasma protein binding assay, human plasma (hPPB); type: in vitro ADME; details: 5 μM, equilibrium dialysis 4 hours 37° C.
Outline: (§3)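 Equilibrium dialysis of 5 μM compound in previously frozen human or mouse plasma against phosphate buffer, 4 h at 37 °C. Both chambers quantified by LC-MS/MS; % free = (1−((PC−PF)/PC))×100.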

[6] = Plasma protein binding assay, mouse plasma (mPPB); type: in vitro ADME; details: 5 μM, equilibrium dialysis 4 hours 37° C.
Outline: as §3

[7] = Solubility (Sol), medium not stated; type: physicochemical; details: cells not marked (FESSIF)

Compound	IC50 [1]	IC50 [2]	microsomal CLint at 1 μM [3]	microsomal CLint at 1 μM [4]	hPPB (% free) [5]	mPPB (% free) [6]	Sol [7]
O=C1CCc2c(Oc3ccc4c(c3)CC(c3nc(-c5cc(F)ccc5F)c[nH]3)CO4)ccnc2N1 (stereo not drawn) [Compound 5, 5-[3-[4-(2,5-difluorophenyl)-1H-imidazol-2-yl]chroman-6-yl]oxy-3,4-dihydro-1H-1,8-naphthyridin-2-one]	186 nM	191 nM	33.9 µL/min/mg	28.5 µL/min/mg	0.3 % free	0.4 % free	<1.2 mg/L
CC(C)NCc1cc(-c2c[nH]c(C3COc4ccc(Oc5ccnc6c5CCC(=O)N6)cc4C3)n2)cc(C(F)(F)F)c1 (stereo not drawn) [Compound 6, 5-[3-[4-[3-[(isopropylamino)methyl]-5-(trifluoromethyl)phenyl]-1H-imidazol-2-yl]chroman-6-yl]oxy-3,4-dihydro-1H-1,8-naphthyridin-2-one]	977 nM	447 nM	33.4 µL/min/mg	18.1 µL/min/mg	2.4 % free	1.3 % free	<1.4 mg/L
CN(C)Cc1cc(-c2c[nH]c(C3COc4ccc(Oc5ccnc6c5CCC(=O)N6)cc4C3)n2)cc(C(F)(F)F)c1 (stereo not drawn) [Compound 7, 5-[3-[4-[3-[(dimethylamino)methyl]-5-(trifluoromethyl)phenyl]-1H-imidazol-2-yl]chroman-6-yl]oxy-3,4-dihydro-1H-1,8-naphthyridin-2-one]	692 nM	191 nM	67.9 µL/min/mg	39.2 µL/min/mg	1.9 % free	0.9 % free	<1.4 mg/L
Cc1ccc(-c2c[nH]c(C3COc4ccc(Oc5ccnc6c5CCC(=O)N6)cc4C3)n2)cc1 (stereo not drawn) [Compound 9, 5-[3-[4-(p-tolyl)-1H-imidazol-2-yl]chroman-6-yl]oxy-3,4-dihydro-1H-1,8-naphthyridin-2-one]	331 nM	186 nM	70.5 µL/min/mg	6.1 µL/min/mg	0.6 % free	0.4 % free	<1.1 mg/L
COc1ccc(-c2c[nH]c(C3COc4ccc(Oc5ccnc6c5CCC(=O)N6)cc4C3)n2)cc1 (stereo not drawn) [Compound 10, 5-[3-[4-(4-methoxyphenyl)-1H-imidazol-2-yl]chroman-6-yl]oxy-3,4-dihydro-1H-1,8-naphthyridin-2-one]	832 nM	282 nM	89.1 µL/min/mg	45.9 µL/min/mg	0.6 % free	0.7 % free	<1.2 mg/L
O=C1CCc2c(Oc3ccc4c(c3)CC(c3nc(-c5ccc(Cl)cc5)c[nH]3)CO4)ccnc2N1 (stereo not drawn) [Compound 11, 5-[3-[4-(4-chlorophenyl)-1H-imidazol-2-yl]chroman-6-yl]oxy-3,4-dihydro-1H-1,8-naphthyridin-2-one]	257 nM	214 nM	10.3 µL/min/mg	29.1 µL/min/mg	0.5 % free	0.1 % free	<1.2 mg/L
COc1cccc(-c2c[nH]c(C3COc4ccc(Oc5ccnc6c5CCC(=O)N6)cc4C3)n2)c1 (stereo not drawn) [Compound 13, 5-[3-[4-(3-methoxyphenyl)-1H-imidazol-2-yl]chroman-6-yl]oxy-3,4-dihydro-1H-1,8-naphthyridin-2-one]	35.5 nM	123 nM	77.1 µL/min/mg	114 µL/min/mg	0.7 % free	1.2 % free	<1.2 mg/L
Cc1cccc(-c2c[nH]c(C3COc4ccc(Oc5ccnc6c5CCC(=O)N6)cc4C3)n2)c1 (stereo not drawn) [Compound 14, 5-[3-[4-(m-tolyl)-1H-imidazol-2-yl]chroman-6-yl]oxy-3,4-dihydro-1H-1,8-naphthyridin-2-one]	18.2 nM	75.9 nM	60.7 µL/min/mg	51.3 µL/min/mg	0.1 % free	0.5 % free	<1.1 mg/L
O=C1CCc2c(Oc3ccc4c(c3)CC(c3nc(-c5cccc(F)c5)c[nH]3)CO4)ccnc2N1 (stereo not drawn) [Compound 15, 5-[3-[4-(3-fluorophenyl)-1H-imidazol-2-yl]chroman-6-yl]oxy-3,4-dihydro-1H-1,8-naphthyridin-2-one]	24 nM	67.6 nM	39.9 µL/min/mg	33.9 µL/min/mg	0.2 % free	1.3 % free	<1.1 mg/L
COc1cncc(-c2c[nH]c(C3COc4ccc(Oc5ccnc6c5CCC(=O)N6)cc4C3)n2)c1 (stereo not drawn) [Compound 17, 5-[3-[4-(5-methoxy-3-pyridyl)-1H-imidazol-2-yl]chroman-6-yl]oxy-3,4-dihydro-1H-1,8-naphthyridin-2-one]	933 nM	347 nM	31.5 µL/min/mg	16.5 µL/min/mg	0.7 % free	2.4 % free	<1.2 mg/L
O=C1CCc2c(Oc3ccc4c(c3)CC(c3nc(-c5ccc(C(F)(F)F)cc5)c[nH]3)CO4)ccnc2N1 (stereo not drawn) [Compound 20, 5-[3-[4-[4-(trifluoromethyl)phenyl]-1H-imidazol-2-yl]chroman-6-yl]oxy-3,4-dihydro-1H-1,8-naphthyridin-2-one]	741 nM	603 nM	16.9 µL/min/mg	3 µL/min/mg	0.1 % free	0.1 % free	<1.3 mg/L
N#Cc1ccc(-c2c[nH]c(C3COc4ccc(Oc5ccnc6c5CCC(=O)N6)cc4C3)n2)cc1 (stereo not drawn) [Compound 21]	933 nM	275 nM	15.6 µL/min/mg	23.2 µL/min/mg	0.7 % free	1.6 % free	<1.2 mg/L
